Structures can show the parent of a compound that is named as a salt. Where only a bound is given, the exact number is not on record here.

19 compounds from ChEMBL document CHEMBL4392822, “HSP60/10 chaperonin systems are inhibited by a variety of approved drugs, natural products, and known bioactive molecules” (Bioorg Med Chem Lett, 2019) can be followed below.

Test [1] addresses GroEL/GroES. The arrangement: species or system Escherichia coli.
Description: (§1) Inhibition of Escherichia coli GroEL expressed in Escherichia coli DH5alpha/Escherichia coli GroES expressed in Escherichia coli BL21 (DE3) assessed as reduction in GroEL/GroES-mediated denatured rhodanese refolding by measuring rhodanese enzyme activity after 45 mins by Fe(SCN)3 dye based spectrometric analysis
Test [2] concerns the target HSP60/HSP10 (Homo sapiens, UniProt P10809+P61604).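 Also: His-tagged human HSP60 with HSP10 refolding denatured MDH, read as MDH activity on mesoxalate by malachite green spectrometry, inhibition of refolding.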
For another test, the target named is Chaperonin GroEL (Escherichia coli (strain K12), UniProt P0A6F5).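 Also: inhibition of GroEL ATPase activity with ATP as substrate, 60 min incubation, spectrometric read-out, recombinant enzyme produced in Escherichia coli DH5alpha.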
Description: (§2) Inhibition of human N-terminal octa-His-tagged HSP60 expressed in Escherichia coli Rosetta(DE3) pLysS/human HSP10 expressed in Escherichia coli Rosetta(DE3) assessed as reduction in HSP60/HSP10-mediated denatured MDH refolding by measuring MDH enzyme activity using sodium mesoxalate as substrate after 40 to 60 mins by malachite green dye based spectrometric analysis
In test [3] the target is GroEL/GroES. On the set-up: species or system Escherichia coli. The source holds these as a separate data set.
Description: (§3) Inhibition of Escherichia coli GroEL expressed in Escherichia coliDH5alpha/Escherichia coli GroES expressed in Escherichia coli BL21 (DE3) assessed as reduction in GroEL/GroES-mediated denatured soluble pig heart MDH refolding by measuring MDH enzyme activity using sodium mesoxalate as substrate after 20 to 40 mins by malachite green dye based spectrometric analysis
Test [4] has as its target T1, E. coli GroEL/ES (Escherichia coli, UniProt P0A6F5).
Description: as §1
Test [5] deals with T2, Thiosulfate sulfurtransferase (Homo sapiens, UniProt Q16762).
T2 sequence (Q16762 whole entry): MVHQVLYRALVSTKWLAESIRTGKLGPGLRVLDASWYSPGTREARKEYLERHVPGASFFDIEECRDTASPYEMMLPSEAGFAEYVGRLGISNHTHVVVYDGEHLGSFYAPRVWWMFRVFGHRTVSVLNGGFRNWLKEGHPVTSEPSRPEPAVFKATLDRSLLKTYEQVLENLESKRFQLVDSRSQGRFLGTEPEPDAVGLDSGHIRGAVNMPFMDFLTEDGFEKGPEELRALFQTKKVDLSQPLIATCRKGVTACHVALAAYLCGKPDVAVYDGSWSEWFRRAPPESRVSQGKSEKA
The format is ADME.
Description: Inhibition of native rhodanese (unknown origin) assessed as reduction in rhodanese enzyme activity after 45 mins by Fe(SCN)3 dye based spectrometric analysis

Test [6] deals with HSP60/HSP10 (Homo sapiens, UniProt P10809).
Description: as §2
Test [7] deals with T1, E. coli GroEL/ES. The source holds these as a separate data set.
Description: as §3

T1 sequence (P0A6F5 whole entry, looked up): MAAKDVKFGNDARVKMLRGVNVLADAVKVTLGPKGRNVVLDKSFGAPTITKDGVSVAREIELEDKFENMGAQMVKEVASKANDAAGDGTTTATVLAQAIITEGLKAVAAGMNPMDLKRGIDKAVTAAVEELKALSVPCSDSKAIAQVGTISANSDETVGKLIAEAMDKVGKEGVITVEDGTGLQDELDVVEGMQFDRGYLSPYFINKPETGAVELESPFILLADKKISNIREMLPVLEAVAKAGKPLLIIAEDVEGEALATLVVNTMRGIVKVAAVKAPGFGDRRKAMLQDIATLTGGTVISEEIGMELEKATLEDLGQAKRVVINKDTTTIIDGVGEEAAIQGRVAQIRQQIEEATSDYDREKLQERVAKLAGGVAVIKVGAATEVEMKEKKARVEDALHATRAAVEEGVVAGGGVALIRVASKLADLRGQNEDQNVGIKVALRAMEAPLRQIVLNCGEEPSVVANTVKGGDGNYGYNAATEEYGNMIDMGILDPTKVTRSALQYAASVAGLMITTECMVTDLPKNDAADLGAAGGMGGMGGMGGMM
Sequence of Chaperonin GroEL (P0A6F5 whole entry): as the sequence (P0A6F5 whole entry, looked up) above
Sequence of HSP60/HSP10 (Homo sapiens, UniProt P10809) (P10809 whole entry): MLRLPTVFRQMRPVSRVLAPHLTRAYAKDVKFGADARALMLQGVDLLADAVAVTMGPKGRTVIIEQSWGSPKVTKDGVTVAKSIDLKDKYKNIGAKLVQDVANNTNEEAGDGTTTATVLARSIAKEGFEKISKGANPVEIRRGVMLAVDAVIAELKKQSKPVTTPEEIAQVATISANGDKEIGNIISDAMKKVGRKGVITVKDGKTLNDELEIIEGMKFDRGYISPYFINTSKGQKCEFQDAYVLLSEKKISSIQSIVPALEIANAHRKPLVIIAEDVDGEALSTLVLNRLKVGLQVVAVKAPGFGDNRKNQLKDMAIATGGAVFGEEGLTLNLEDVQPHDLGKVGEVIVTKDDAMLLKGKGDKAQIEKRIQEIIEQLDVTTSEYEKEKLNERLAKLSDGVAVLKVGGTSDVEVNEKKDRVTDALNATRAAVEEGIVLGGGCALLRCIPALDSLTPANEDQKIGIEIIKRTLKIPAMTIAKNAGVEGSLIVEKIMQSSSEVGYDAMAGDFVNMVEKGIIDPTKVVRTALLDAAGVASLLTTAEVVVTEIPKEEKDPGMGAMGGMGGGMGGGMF
Sequence of HSP60/HSP10 (Homo sapiens, UniProt P10809) (P61604 whole entry, further chain): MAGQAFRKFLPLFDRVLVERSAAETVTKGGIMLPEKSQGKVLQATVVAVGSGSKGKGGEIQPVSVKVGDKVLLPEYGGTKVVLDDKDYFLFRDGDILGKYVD
Sequence of HSP60/HSP10 (Homo sapiens, UniProt P10809+P61604) (P10809 whole entry): as the sequence (P10809 whole entry) above
Sequence of HSP60/HSP10 (Homo sapiens, UniProt P10809+P61604) (P61604 whole entry): as the sequence (P61604 whole entry, further chain) above
Description for Chaperonin GroEL: Inhibition of ATPase activity of Escherichia coli GroEL expressed in Escherichia coliDH5alpha incubated for 60 mins using ATP by spectrometric analysis

For `C=CC1=C(C)c2cc3[nH]c(cc4nc(cc5[nH]c(cc1n2)c(C)c5CCC(=O)O)C(CCC(=O)O)=C4C)c(C)c3C=C` [PROTOPORPHYRIN], the 50% inhibitory concentration (IC50) (in general, the concentration that inhibits the measured activity by half) at GroEL/GroES [1] was 3 µM; against HSP60/HSP10 [2] it was 4.9 µM; on Chaperonin GroEL, > 250 µM; at GroEL/GroES [3], 4.4 µM.
For `O=C(O[C@@H]1Cc2c(O)cc(O)cc2O[C@@H]1c1cc(O)c(O)c(O)c1)c1cc(O)c(O)c(O)c1` [EPIGALOCATECHIN GALLATE], the IC50 at E. coli GroEL/ES [4] was 0.58 µM; in test [5], 7.3 µM; on HSP60/HSP10 [6] it was 2.3 µM; against Chaperonin GroEL, > 250 µM; against E. coli GroEL/ES [7], 0.36 µM.
Turning to `CC1=CC(=O)c2ccccc2C1=O` [MENADIONE], the 50% inhibitory concentration (IC50) was 2.5 µM at E. coli GroEL/ES [4]; 1 µM in test [5]; 15 µM on HSP60/HSP10 [6]; > 250 µM against Chaperonin GroEL; 9 µM against E. coli GroEL/ES [7].
In the case of `CCCCCCCCCCCCCCCC(=O)OC[C@H](O)[C@H]1OC(=O)C(O)=C1O` [ASCORBYL PALMITATE], the half-inhibitory concentration (IC50) stood at 8.5 µM on E. coli GroEL/ES [4]; 53 µM in test [5]; 3.1 µM on HSP60/HSP10 [6]; 177 µM on Chaperonin GroEL; 3.5 µM against E. coli GroEL/ES [7].
`CC1(C)CCC2=C(O1)c1ccccc1C(=O)C2=O` [LAPACHONE]: the IC50 is 0.59 µM on E. coli GroEL/ES [4]; 0.12 µM in test [5]; 2.1 µM against HSP60/HSP10 [6]; > 250 µM against Chaperonin GroEL; 1.3 µM on E. coli GroEL/ES [7].
On to `O=c1c(O)c(-c2ccc(O)c(O)c2)oc2c(O)c(O)cc(O)c12` [GOSSYPETIN], for which the 50% inhibitory concentration (IC50) was 0.39 µM on E. coli GroEL/ES [4]; 0.33 µM in test [5]; 7.5 µM on HSP60/HSP10 [6]; > 250 µM at Chaperonin GroEL; 2.1 µM against E. coli GroEL/ES [7].
In the same order, the values of `CN(C)c1ccc(C(=C2C=CC(=[N+](C)C)C=C2)c2ccc(N(C)C)cc2)cc1` [GENTIAN VIOLET] are 15 µM, 16 µM, 5.8 µM, > 250 µM and 11 µM.
With `CC[n+]1c(-c2ccccc2)c2cc(N)ccc2c2ccc(N)cc21` [HOMIDIUM BROMIDE], the IC50 is 2.4 µM against E. coli GroEL/ES [4]; 0.83 µM in test [5]; > 100 µM against HSP60/HSP10 [6]; > 250 µM against Chaperonin GroEL; > 100 µM on E. coli GroEL/ES [7].
Turning to `CC[C@H](C)[C@H]1O[C@]2(C=C[C@@H]1C)C[C@@H]1C[C@@H](C/C=C(\C)[C@@H](O[C@H]3C[C@H](OC)[C@@H](O[C@H]4C[C@H](OC)[C@@H](O)[C@H](C)O4)[C@H](C)O3)[C@@H](C)/C=C/C=C3\CO[C@@H]4[C@H](O)C(C)=C[C@@H](C(=O)O1)[C@]34O)O2` [ABAMECTIN COMPONENT B1A], the IC50 was 32 µM against E. coli GroEL/ES [4]; > 100 µM in test [5]; 15 µM against HSP60/HSP10 [6]; > 250 µM at Chaperonin GroEL; 9.8 µM at E. coli GroEL/ES [7].
On to `O=C(/C=C/c1ccccc1)c1ccc(O)cc1` [4'-HYDROXYCHALCONE], for which the IC50 is 56 µM against E. coli GroEL/ES [4]; > 100 µM in test [5]; 20 µM at HSP60/HSP10 [6]; > 250 µM at Chaperonin GroEL; 21 µM against E. coli GroEL/ES [7].
As to `CCCCCCCCCCCCCCCCC(C(=O)O)C(O)(CC(=O)O)C(=O)O` (centres undefined), the IC50 was 8.9 µM against E. coli GroEL/ES [4]; > 100 µM in test [5]; 4 µM at HSP60/HSP10 [6]; > 250 µM on Chaperonin GroEL; 3.5 µM at E. coli GroEL/ES [7].
For the compound `CC[C@H](C)C1O[C@]2(C=C[C@@H]1C)C[C@@H]1C[C@@H](C/C=C(\C)[C@@H](O[C@H]3C[C@H](OC)[C@@H](O[C@H]4C[C@H](OC)[C@H](NC(C)=O)[C@H](C)O4)[C@H](C)O3)[C@@H](C)/C=C/C=C3\CO[C@@H]4[C@H](O)C(C)=C[C@@H](C(=O)O1)[C@]34O)O2` (some centres undefined), the half-inhibitory concentration (IC50) against E. coli GroEL/ES [4] was 38 µM; in test [5], > 100 µM; against HSP60/HSP10 [6], 17 µM; against Chaperonin GroEL, > 250 µM; at E. coli GroEL/ES [7], 11 µM.
As for `COc1cc(/C=C/C(=O)CC(=O)/C=C/c2ccc(O)c(OC)c2)ccc1O` [CURCUMIN], the IC50 on E. coli GroEL/ES [4] was 2.9 µM; in test [5] it was 56 µM; against HSP60/HSP10 [6], 8.3 µM; on Chaperonin GroEL, > 250 µM; against E. coli GroEL/ES [7], 3.1 µM.
In the same order, the values of `C=C(CC)C(=O)c1ccc(OCC(=O)O)c(Cl)c1Cl` [ETHACRYNIC ACID] are 4.7 µM, > 100 µM, 8.5 µM, > 250 µM and 5.2 µM.
Regarding `Cc1cc(-c2ccc(/N=N/c3ccc4c(S(=O)(=O)O)cc(S(=O)(=O)O)c(N)c4c3O)c(C)c2)ccc1/N=N/c1ccc2c(S(=O)(=O)O)cc(S(=O)(=O)O)c(N)c2c1O` [EVANS BLUE], the IC50 against E. coli GroEL/ES [4] was found to be 0.087 µM; in test [5], 8.7 µM; against HSP60/HSP10 [6], 0.17 µM; at Chaperonin GroEL it was 161 µM; against E. coli GroEL/ES [7], 0.039 µM.
For `Cc1cc2c(C(C)C)c(O)c(O)c(C=O)c2c(O)c1-c1c(C)cc2c(C(C)C)c(O)c(O)c(C=O)c2c1O`, the IC50 was 0.43 µM at E. coli GroEL/ES [4]; 11 µM in test [5]; 1.2 µM against HSP60/HSP10 [6]; > 250 µM against Chaperonin GroEL; 0.66 µM against E. coli GroEL/ES [7].
With `CC(COc1ccccc1)N(CCCl)Cc1ccccc1` (centres undefined) [PHENOXYBENZAMINE HYDROCHLORIDE], the IC50 at E. coli GroEL/ES [4] was 129 µM; in test [5] it was > 100 µM; at HSP60/HSP10 [6] it was 78 µM; against Chaperonin GroEL, > 250 µM; at E. coli GroEL/ES [7], 40 µM.
Turning to `CCCCC/C=C\C/C=C\C/C=C\C/C=C\CCCC(=O)O` [ARACHIDONIC ACID], the IC50 is 18 µM at E. coli GroEL/ES [4]; > 100 µM in test [5]; 4.5 µM against HSP60/HSP10 [6]; > 250 µM against Chaperonin GroEL; 7.3 µM against E. coli GroEL/ES [7].
In the case of `Oc1ccc(Cl)cc1Cc1cc(Cl)ccc1O` [DICHLOROPHEN], the IC50 is 66 µM at E. coli GroEL/ES [4]; > 100 µM in test [5]; 17 µM against HSP60/HSP10 [6]; > 250 µM at Chaperonin GroEL; 24 µM against E. coli GroEL/ES [7].
